For 2 molecules, logKo/w value and logP results are on record in patent US20090203797A1, “Antimycotic Patch” (priority 2007, published 2009).

In general, logP refers to a log measure of how a compound divides between an organic and an aqueous phase.

SMILES strings stand for the structures. Counter-ions that a name gives are not always drawn.

The conditions of data set [1]: from the interview form provided with 125 mg Lamisil Tablets; cited from earlier work.
Data set [2] can be described thus: octanol/water partition coefficient logKo/w. Conditions: 32° C., HPLC of each layer. The data set is classed as physicochemical. As for the experimental part: In the present invention, logKo/w is determined in the following manner. First, a drug is dissolved in a suitable amount of octanol (or water) at 32° C. followed by the further addition of an equal amount of water (or octanol) and mixing well. After the mixture divides into two layers, the concentration of drug in each layer is measured by HPLC and logKo/w is determined using the equation below. LogKo/w=log(drug concentration in octanol phase/drug concentration in aqueous phase)

`CN(C/C=C/C#CC(C)(C)C)Cc1cccc2ccccc12` [terbinafine hydrochloride]: in data set [1], the logKo/w value is given as 0.87.

`CN(C/C=C/C#CC(C)(C)C)Cc1cccc2ccccc12` [terbinafine-base] yielded a logP in data set [2] of 5.8.
